Reference: patent US20070208021A1, “Phenoxyacetic Acid Derivatives and Drug Comprising The Same” (DAIICHI PHARMACEUTICAL CO., LTD., priority 2004, published 2007)
Values after ≈ are worked out from the molar mass of the structure shown. Structures can show the parent of a compound that is named as a salt. Where two headings read alike, the source gives them in different places.

Experiments:
[1] = Determination of solubility in JP-fluid 1 / JP-fluid 2 (HPLC); assay type: physicochemical; settings: thermodynamic from solid, 12 hours or more
Description: Determination of Solubility
One mg of a test compound was put into a test tube, and 1 ml of the first fluid for Japanese Pharmacopoeia Disintegration Test Method (synthetic gastric juice, pH 1.2: hereinafter referred to as JP-fluid 1) or the second fluid for Japanese Pharmacopoeia Disintegration Test Method (synthetic intestinal juice, pH 6.8: hereinafter referred to as JP-fluid 2) was added thereto and shaken, and then statically left at room temperature for 12 hours or more. After thus left, the sample was filtered through a 0.45-μm membrane filter, and the filtrate was suitably diluted with a mixture of DMSO-purified water (1/1) to prepare solutions for solubility determination.
Apart from the above, 1 mg of the test compound was put into a 20-mL messflask, and dissolved in a mixture of DMSO-purified water (1/1) to prepare a standard solution of 50 μg/mL. The standard solution was stepwise diluted to give serial dilutions, and using the dilutions, a calibration curve was formed.
The above-mentioned solutions for solubility determination with the JP-fluid 1 or the JP-fluid 2 were analyzed through HPLC, and based on the calibration curve formed in the above, the solubility of the test compound was computed.
The HPLC condition is as follows:
HPLC System for Alliance Assay (by Waters, USA),
Feed Pump: 2795 separation module,
UV Detector: 2996 photodiode array detector,
Column: ODS-type C18 column (3.5 μm, 3.0 mm ID×30 mm),
Column Temperature: 60° C.,
Mobile Phase A: pH 4.5, 10 mM acetate buffer,
Mobile Phase B: 50% acetic acid-acetonitrile mixture (1/999),
Gradient Condition: mobile phase A/B ratio, 95/5 to 10/90,
Sample Temperature: 25° C.,
Detection Wavelength: maximum absorption wavelength within a range of 220 to 420 nm.

hPPARγ = molecular target: T1, hPPARγ (Homo sapiens, UniProt P37231); assay: GAL4-hPPAR transactivation assay (PPARγ); assay type: cell-based; settings: HEK293T cells, pFA-hPPARγ/GAL4 + pFR-SEAP reporter, about 48 hours
T1 construct: expressed in transfected cells; host or cells: HEK293T
T1 sequence (P37231 238-503 limits assumed): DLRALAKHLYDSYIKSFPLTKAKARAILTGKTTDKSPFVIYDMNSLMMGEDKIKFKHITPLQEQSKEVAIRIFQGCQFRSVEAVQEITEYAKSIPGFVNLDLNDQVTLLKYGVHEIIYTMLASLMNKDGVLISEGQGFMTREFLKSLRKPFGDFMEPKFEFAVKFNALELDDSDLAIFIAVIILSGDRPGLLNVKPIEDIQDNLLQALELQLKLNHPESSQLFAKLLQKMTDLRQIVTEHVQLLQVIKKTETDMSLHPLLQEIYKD
Source text: (§1) GAL4-hPPAR Transactivation Assay
(§2) Plasmids for the expression of fusion protein for GAL4 DNA binding region-PPAR ligand binding region, pFA-hPPARα/GAL4 and pFA-hPPARγ/GAL4, were constructed by inserting the LBD cDNA of hPPARα and hPPARγ, respectively, into a commercially-available expression vector (pFA trans-activator plasmid, by STRATAGENE) having a GAL4 DNA binding region (GAL4 DBD) of yeast, under CMV promoter. For the expression of a reporter protein, used were a commercially-available plasmid (pFR-SEAP, by STRATAGENE) having a GAL4 responsive region (GAL4 UAS) in the upstream of cDNA of a secreted alkaline phosphatase (SEAP).
(§3) (b) Cell Culture and Transactivation Assay:
(§4) HEK293T cells were suspended in a high-glucose Dulbecco's modified Eagle's medium (DMEM) containing 10% fetal calf serum (by Hyclone), 100 U/mL penicillin G and […], and seeded in a 24-well cell culture plate in a density of 8×10^4 cells/well. The cells were cultured in a humidified atmosphere of 5% CO2 at 37° C. for 24 hours, and then subjected to transfection using Lipofectamine (by Invitrogen) and Plus reagent (by Invirogen) according to the manufacture's instruction in the absence of serum. Concretely, the cells were incubated in 225 μL of a transfection medium (OPTI-MEM, by Invitrogen) containing 0.48 μL of Lipofectamine, 0.030 μg of pFA-PPAR/GAL4 expression plasmid and 0.13 μg of pFR-SEAP, in a 5% CO2 atmosphere at 37° C. for 5 hours. Next, the same volume of a fresh high-glucose DMEM containing 10% fetal calf serum, 100 U/mL penicillin G, […] streptomycin sulfate and a test compound of two times the designated concentration was added to it, and the cells were incubated for about 48 hours. After the compound was solubilized in DMSO, control cells were incubated along with an equivalent concentration of DMSO. […] After the incubation, the culture supernatant was collected, and using a kit (reporter assay kit—SEAP, by TOYOBO), the SEAP activity was determined according to the manufacturer's instruction. Concretely, the same amount of an intrinsic alkaline phosphatase inhibitor was added to 5 μL of the culture supernatant and incubated at 37° C. for 30 minutes, and then 100 μL of a chemoluminescent substrate (Lumiphos PLUS, by Lumigen) was added thereto and incubated at 37° C. for 15 minutes, and thereafter the luminescence level was determined using a multi-label counter (ARVOsx, by Perkin Elmer). The values obtained as a result of the above operation and the concentrations of the test compound were plotted to obtain the EC50 value.

[2] = Lipid solubility: octanol / pH 7.4 phosphate buffer partition coefficient; assay type: physicochemical; settings: n-octanol / pH 7.4 isotonic phosphate buffer, read-out: log D (pH 7.4)
Description: An equi-volume mixture of n-octanol (hereinafter referred to as octanol) and pH 7.4 isotonic phosphate buffer (hereinafter referred to as aqueous phase) was shaken in a suitable vessel, then statically left for 24 hours or more, and the upper layer (water-saturated octanol) and the lower layer (octanol-saturated water) were separately collected.
1 mg of a test compound was put into a test tube, and 5 ml of the water-saturated octanol was added thereto, ultrasonicated for 10 minutes and then stirred for about 30 seconds. In case where an insoluble substance was seen, then the liquid was filtered through a 0.45-μm membrane filter. 2 mL of the water-saturated octanol solution of the test compound was taken into a test tube, 2 mL of the octanol-saturated water was added thereto and shaken for 30 minutes. Then, this was centrifuged to separate into an upper layer (octanol phase) and a lower layer (aqueous phase), which were then separately collected.
The octanol phase and the aqueous phase were suitably diluted with DMSO, and the concentration of the test compound therein was determined through UV-detection HPLC or MS-detection HPLC.
From the concentration measured in each phase and the dilution ratio of each phase, the partition coefficient was derived through computation.
In case where the solubility in water of the test compound is estimated to be high, then the test compound is dissolved in the octanol-saturated water and then the water-saturated octanol is added thereto, shaken and centrifuged, and the upper layer (octanol phase) and the lower layer (aqueous phase) are separately collected to determine the concentration of the test compound.
The details of the HPLC apparatus and its operation condition are as follows: […]

hPPARα = molecular target: T2, hPPARα (Homo sapiens, UniProt Q07869); assay: GAL4-hPPAR transactivation assay (PPARα); assay type: cell-based; settings: HEK293T cells, pFA-hPPARα/GAL4 + pFR-SEAP reporter, about 48 hours
T2 construct: expressed in transfected cells; host or cells: HEK293T
T2 sequence (Q07869 239-466 limits assumed): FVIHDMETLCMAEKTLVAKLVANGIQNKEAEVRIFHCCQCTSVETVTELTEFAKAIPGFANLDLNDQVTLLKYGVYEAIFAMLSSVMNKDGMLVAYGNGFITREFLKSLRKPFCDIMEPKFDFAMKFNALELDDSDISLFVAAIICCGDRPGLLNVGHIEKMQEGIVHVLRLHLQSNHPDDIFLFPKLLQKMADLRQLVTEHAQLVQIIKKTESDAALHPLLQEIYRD
Source text: as §1, §2, §3, §4

[3] = in vivo; cited from earlier work
[4] = patients associated with type II diabetes; cited from earlier work
[5] = db/db mice, as compared with pioglitazone; cited from earlier work
[6] = fassgf or other biorelevant, synthetic intestinal juice, pH 6.8, room temperature, read-out: Solubility JP-fluid 2
[7] = simulated gastric fluid, synthetic gastric juice, pH 1.2, room temperature, read-out: Solubility JP-fluid 1

solubility [1, 6] [mg/mL]	solubility [1, 7] [mg/mL]	EC50 (hPPARγ) [nM]	logD [2]	EC50 (hPPARα) [nM]	Compound	high-density lipoprotein (HDL) [3]	plasma triglyceride [3]	body weight increase or fluid accumulation [4]	body weight increase [5]
0.48 (≈ 949 µM)	> 0.49	8.8	2.6	2.4	Cc1cc(CN(Cc2nccs2)Cc2nc(-c3ccccc3)oc2C)cc(C)c1OC(C)(C)C(=O)O [Example 16-(2), 2-[2,6-Dimethyl-4-[[(5-methyl-2-phenyloxazol-4-ylmethyl)thiazol-2-ylmethylamino]methyl]phenoxy]-2-methylpropanoic acid]				
0.01 (≈ 17.9 µM)	0.24 (≈ 430 µM)	48	4.4	44	Cc1cc(CN(Cc2ccco2)Cc2sc(-c3ccc(C(F)(F)F)cc3)nc2C)ccc1OC(C)(C)C(=O)O [SKB-compd, reference compound]				
< 0.003	0.93 (≈ 1690 µM)	180	2.5	4.8	Cc1oc(-c2cccc(Br)c2)nc1CN(Cc1ccncc1)Cc1ccc(OC(C)(C)C(=O)O)cc1 [Example 4-(2), 2-[4-[[[2-(3-Bromophenyl)-5-methyloxazol-4-ylmethyl]pyridin-4-ylmethylamino]methyl]phenoxy]-2-methylpropionic acid]				
> 0.71	0.65 (≈ 1290 µM)	6.9	1.8	2.7	Cc1noc(CN(Cc2cc(C)c(OC(C)(C)C(=O)O)c(C)c2)Cc2nc(-c3ccccc3)oc2C)n1 [Example 19-(3), 2-[2,6-Dimethyl-4-[[(3-methyl-[1,2,4]oxadiazol-5-ylmethyl)-(5-methyl-2-phenyloxazol-4-ylmethyl)amino]methyl]-phenoxy]-2-methylpropanoic acid]				
> 0.87	> 0.87	5.5	1.8	3.7	Cc1cc(CN(Cc2ncco2)Cc2nc(-c3ccccc3)oc2C)cc(C)c1OC(C)(C)C(=O)O [Example 13-(2), 2-[2,6-Dimethyl-4-[[(5-methyl-2-phenyloxazol-4-ylmethyl)oxazol-2-ylmethylamino]methyl]phenoxy]-2-methylpropanoic acid]				
					Cc1oc(-c2ccc(-c3ccccc3)cc2)nc1CCOc1ccc(OC(C)(C)C(=O)O)cc1 [LY465608]	dose-dependently increases	lowers		
> 0.71	> 0.71	33	1.1	2.9	Cc1nnc(CN(Cc2cc(C)c(OC(C)(C)C(=O)O)c(C)c2)Cc2nc(-c3ccccc3)oc2C)o1 [Example 18-(2), 2-[2,6-Dimethyl-4-[[(5-methyl-[1,3,4]oxadiazol-2-ylmethyl)-(5-methyl-2-phenyloxazol-4-ylmethyl)amino]methyl]phenoxy]-2-methylpropanoic acid]				
0.68	0.52	220	2.3	2.6	Cc1oc(-c2cccc(Br)c2)nc1CN(Cc1ccc(OC(C)(C)C(=O)O)cc1)Cc1cscn1 [Example 5-(2), 2-[4-[[[2-(3-Bromophenyl)-5-methyloxazol-4-ylmethyl]thiazol-4-ylmethylamino]methyl]phenoxy]-2-methylpropionic acid hydrochloride]				
> 1	0.49	590	2.7	13	Cc1oc(-c2cccc(Br)c2)nc1CN(Cc1ccc(OC(C)(C)C(=O)O)cc1)Cc1nccs1 [Example 1-(2), 2-[4-[[[2-(3-Bromophenyl)-5-methyloxazol-4-ylmethyl]thiazol-2-ylmethylamino]methyl]phenoxy-2-methylpropionic acid hydrochloride]				
					CCc1ccc(CCOc2ccc(CC3SC(=O)NC3=O)cc2)nc1 (centres unmarked) [Pioglitazone, pioglitazone]			observed in some patients	
					COc1ccc(CC2SC(=O)NC2=O)cc1C(=O)NCc1ccc(C(F)(F)F)cc1 (centres unmarked) [KRP-297]				significantly inhibits the body weight increase
